# Experimental data from ChEMBL document CHEMBL1138105, “Highly potent and selective zwitterionic agonists of the delta-opioid receptor. Part 1” (Bioorg Med Chem Lett, 2006).
# Calls of active or inactive are those of the source. The rule behind the calls is not given here.
# Tests used:
# [1] = target: Delta-type opioid receptor (Mus musculus, UniProt P32300)
# Description: Agonist activity at delta opioid receptor in mouse vas deferens
# [2] = target: Kappa-type opioid receptor (Cavia porcellus, UniProt P41144); assay: Agonist activity at kappa opioid receptor in myenteric plexus muscle from guinea pig; format: functional
# [3] = target: Mu-type opioid receptor (Cavia porcellus, UniProt P97266); assay: Agonist activity at mu opioid receptor in myenteric plexus muscle from guinea pig; format: functional
# [4] = system: Mus musculus; assay: Effect on locomotor activity in mouse hyper locomotion model at 400 ug/kg, iv; format: functional, organism-based
# [5] = system: Mus musculus; assay: Effect on locomotor activity in mouse hyper locomotion model at 100 ug/kg, iv; format: functional, organism-based
# [6] = Distribution coefficient of the compound, log D at pH 7.4; format: physicochemical; conditions: octanol/water
# [7] = Oral bioavailability in dog; format: ADME, organism-based, Canis lupus familiaris; conditions: in vivo
# [8] = target: Delta-type opioid receptor (Homo sapiens, UniProt P41143); assay: Binding affinity at human delta opioid receptor expressed in CHO cells; format: cell-based, Cricetulus griseus
# [9] = Volume of distribution in dog; format: ADME, organism-based, Canis lupus familiaris; conditions: in vivo, read-out: Vdss
# [10] = Plasma clearance in dog; format: ADME, organism-based, Canis lupus familiaris
# [11] = system: Mus musculus; assay: Effect on locomotor activity in mouse hyper locomotion model at 1000 ug/kg, iv; format: functional, organism-based
# Mu-type opioid receptor, sequence (P97266 whole entry): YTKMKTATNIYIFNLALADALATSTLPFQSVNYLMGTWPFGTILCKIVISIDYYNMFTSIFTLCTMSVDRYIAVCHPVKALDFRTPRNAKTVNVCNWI
# Kappa-type opioid receptor, sequence (P41144 whole entry): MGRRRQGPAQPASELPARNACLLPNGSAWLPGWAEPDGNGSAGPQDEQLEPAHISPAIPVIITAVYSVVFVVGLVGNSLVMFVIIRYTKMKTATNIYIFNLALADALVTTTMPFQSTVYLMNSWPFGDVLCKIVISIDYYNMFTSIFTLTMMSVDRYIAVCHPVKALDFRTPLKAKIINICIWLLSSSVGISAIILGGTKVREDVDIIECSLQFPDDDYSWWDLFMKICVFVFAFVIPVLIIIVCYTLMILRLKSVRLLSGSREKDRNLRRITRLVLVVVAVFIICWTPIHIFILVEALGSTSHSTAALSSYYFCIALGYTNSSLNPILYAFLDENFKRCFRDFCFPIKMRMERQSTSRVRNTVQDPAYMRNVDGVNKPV
# Delta-type opioid receptor (Mus musculus, UniProt P32300), sequence (P32300 whole entry): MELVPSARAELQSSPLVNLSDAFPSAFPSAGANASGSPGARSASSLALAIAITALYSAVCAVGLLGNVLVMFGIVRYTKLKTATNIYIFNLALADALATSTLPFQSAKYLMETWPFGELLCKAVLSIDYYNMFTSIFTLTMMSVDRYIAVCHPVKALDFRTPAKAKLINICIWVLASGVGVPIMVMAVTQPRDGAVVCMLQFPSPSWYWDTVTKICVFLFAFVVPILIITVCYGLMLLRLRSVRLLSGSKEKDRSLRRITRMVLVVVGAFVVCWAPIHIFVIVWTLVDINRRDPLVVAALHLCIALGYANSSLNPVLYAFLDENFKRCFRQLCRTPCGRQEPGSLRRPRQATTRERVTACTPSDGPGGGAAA
# Delta-type opioid receptor (Homo sapiens, UniProt P41143), sequence (P41143 whole entry): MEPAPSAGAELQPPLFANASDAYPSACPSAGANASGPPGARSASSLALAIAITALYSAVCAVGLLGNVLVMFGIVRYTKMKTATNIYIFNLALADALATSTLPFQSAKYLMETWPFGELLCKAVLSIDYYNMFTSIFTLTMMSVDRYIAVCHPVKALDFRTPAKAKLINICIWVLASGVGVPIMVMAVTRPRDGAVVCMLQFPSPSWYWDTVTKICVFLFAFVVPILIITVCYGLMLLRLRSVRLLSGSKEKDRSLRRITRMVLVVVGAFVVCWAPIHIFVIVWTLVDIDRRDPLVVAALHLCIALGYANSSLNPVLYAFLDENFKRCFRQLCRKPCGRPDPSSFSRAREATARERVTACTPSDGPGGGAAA
Structure (SMILES),IC50 [1],IC50 [2],IC50 [3],logD [6],also measured
C[C@@H]1CN([C@@H](c2cccc(F)c2)c2ccc3c(c2)CN(CCC(=O)O)CC3)[C@@H](C)CN1Cc1ccccc1,100 nM,,,,
C=CCN1C[C@H](C)N([C@H](c2ccc(C(=O)N(CC)CC)cc2)c2cccc(OC)c2)C[C@H]1C [SNC-80],,1260 nM,> 10000 nM,,Activity [4]: Active
C[C@@H]1CN([C@H](c2ccc(CCC(=O)O)cc2)c2cccc(O)c2)[C@@H](C)CN1Cc1ccccc1,0.126 nM,,,2.1,Activity [5]: Active
C[C@@H]1CN([C@@H](c2cccc(O)c2)c2ccc3c(c2)CN(CC(=O)O)C3)[C@@H](C)CN1Cc1ccccc1,0.501 nM,1260 nM,126 nM,,
COc1cccc([C@@H](c2ccc3c(c2)CN(CCC(=O)O)CC3)N2C[C@@H](C)N(Cc3ccccc3)C[C@@H]2C)c1,12.6 nM,1000 nM,> 10000 nM,2.3,
COc1cccc([C@@H](c2ccc3c(c2)CN(CC(=O)O)C3)N2C[C@@H](C)N(Cc3ccccc3)C[C@@H]2C)c1,25.1 nM,,,,
C[C@@H]1CN([C@@H](c2cccc(O)c2)c2ccc3c(c2)CN(CCC(=O)O)CC3)[C@@H](C)CN1Cc1ccccc1,0.00501 nM,5010 nM,1000 nM,2.1,
C[C@@H]1CN([C@@H](c2cccc(F)c2)c2ccc3c(c2)CN(C(=O)CC(=O)O)CC3)[C@@H](C)CN1Cc1ccccc1,20 nM,,,,
C[C@@H]1CN([C@@H](c2ccccc2)c2ccc3c(c2)CN(CCC(=O)O)C3)[C@@H](C)CN1Cc1ccccc1,63.1 nM,,,,
C[C@@H]1CN([C@@H](c2cccc(O)c2)c2ccc3c(c2)CN(C(=O)C(=O)O)CC3)[C@@H](C)CN1Cc1ccccc1,0.00158 nM,398 nM,200 nM,1.6,
C[C@@H]1CN([C@@H](c2cccc(O)c2)c2ccc3c(c2)CN(C(=O)c2cccc(C(=O)O)c2)C3)[C@@H](C)CN1Cc1ccccc1,1.58 nM,1260 nM,100 nM,,
COc1cccc([C@@H](c2ccc3c(c2)CN(CCC(=O)O)C3)N2C[C@@H](C)N(Cc3ccccc3)C[C@@H]2C)c1,631 nM,> 10000 nM,> 10000 nM,,
C[C@@H]1CN([C@@H](c2cccc(F)c2)c2ccc3c(c2)CN(CCC(=O)O)C3)[C@@H](C)CN1Cc1ccccc1,25.1 nM,,,,
C=CCN1C[C@H](C)N([C@H](c2ccc(C(=O)N(CC)CC)cc2)c2cccc(O)c2)C[C@H]1C,0.631 nM,,,,
COc1cccc([C@@H](c2ccc3c(c2)CN(CC(=O)O)CC3)N2C[C@@H](C)N(Cc3ccccc3)C[C@@H]2C)c1,2 nM,1260 nM,5010 nM,2.5,bioavailability [7]: 20%; IC50 [8]: 5.01 nM; Vd [9]: 5.4 L/kg; clearance [10]: 17 mL/min/kg
C[C@@H]1CN([C@@H](c2cccc(O)c2)c2ccc3c(c2)CN(Cc2ccccc2C(=O)O)C3)[C@@H](C)CN1Cc1ccccc1,3.16 nM,,,,
C[C@@H]1CN([C@H](c2ccc(CC(=O)O)cc2)c2cccc(O)c2)[C@@H](C)CN1Cc1ccccc1,0.158 nM,,,1.1,Activity [11]: Active
COc1cccc([C@@H](c2ccc3c(c2)CN(C(=O)CC(=O)O)CC3)N2C[C@@H](C)N(Cc3ccccc3)C[C@@H]2C)c1,15.8 nM,,,1.3,
C[C@@H]1CN([C@@H](c2cccc(O)c2)c2ccc3c(c2)CN(CC(=O)O)CC3)[C@@H](C)CN1Cc1ccccc1,0.0398 nM,1000 nM,316 nM,2.1,
C[C@@H]1CN([C@H](c2ccc(-c3ccccc3C(=O)O)cc2)c2cccc(O)c2)[C@@H](C)CN1Cc1ccccc1,0.02 nM,,,2.3,
C[C@@H]1CN([C@@H](c2cccc(O)c2)c2ccc3c(c2)CN(CCC(=O)O)C3)[C@@H](C)CN1Cc1ccccc1,1 nM,7940 nM,631 nM,,
C[C@@H]1CN([C@@H](c2cccc(O)c2)c2ccc3c(c2)CN(C(=O)c2ccccc2C(=O)O)C3)[C@@H](C)CN1Cc1ccccc1,0.316 nM,3980 nM,50.1 nM,,
C[C@@H]1CN([C@@H](c2cccc(O)c2)c2ccc3c(c2)CN(C(=O)CC(=O)O)CC3)[C@@H](C)CN1Cc1ccccc1,0.001 nM,398 nM,200 nM,0.4,
